From US20100247533A1, “TREATMENT WITH A HUMANIZED ANTI-EGFR IgG1 ANTIBODY AND IRINOTECAN” (priority 2009, published 2010)

What was measured:
colorectal cancer = settings: combined with 5-fluorouracil and leucovorin; first-line treatment for colorectal cancer; cited from earlier work
[1] = test system: A549 lung adenocarcinoma xenografts; test: Animal survival study in vivo, A549 lung adenocarcinoma xenograft model; parameters: species or system SCID beige mice
Description: Partially fucosylated GlycArt-mAb was provided as stock solution (c=11.3 mg/ml), in a buffer containing histidine, trehalose and polysorbate 20. The antibody stock solution was appropriately diluted in PBS prior to injection.
The antibody concentration was adjusted by dilution of the reconstituted stock solution prior to injection.
Irinotecan/CPT-11 (Campto®) was purchased as clinical formulation (20 mg/ml) from Pfizer Pharma GmbH, Karlsruhe, Germany. The antibody concentration was adjusted by dilution of the reconstituted stock solution prior to injection.
A549 human Non Small Cell Lung Cancer (NSCLC) cells were obtained from ATCC. The tumor cell line was routinely cultured in RPMI medium (PAA Laboratories, Austria) supplemented with 10% fetal bovine serum (PAA Laboratories, Austria) and 2 mM L-glutamine, at 37° C. in a water-saturated atmosphere at 5% CO2.
Passage 3 of A549 cells was used for in vivo injection. 2×10^6 cells in PBS were injected intravenously (i.v.).
Female SCID beige mice; age 7-8 weeks at arrival (purchased from Charles River, Sulzfeld, Germany) were maintained under specific pathogen-free conditions with daily cycles of 12 h light/12 h darkness according to committed guidelines (GV-Solas; Felasa; TierschG). […]
The primary parameter was survival. The data was statistically analyzed by log rank test.

Row | SMILES | response rates (colorectal cancer) | p (log rank test), survival compared to vehicle control ([1]; antibodies 25 mg/kg i.p. every seven days, irinotecan 20 mg/kg i.p. four times, single agents or combinations) | animal survival compared to vehicle control ([1]; single agents, antibodies 25 mg/kg i.p. every seven days (day 7-98), irinotecan 20 mg/kg i.p. day 7, 10, 14, 17, A549 cells injected i.v.)
1 | O=C1[O][Pt]2([NH][C@@H]3CCCC[C@H]3[NH]2)[O]C1=O [oxaliplatin] | 25-40% |  | 
2 | CCc1c2c(nc3ccc(OC(=O)N4CCC(N5CCCCC5)CC4)cc13)-c1cc3c(c(=O)n1C2)COC(=O)[C@]3(O)CC [irinotecan] |  | 0.017 | significantly prolonged animal survival
